Reference: patent US20250186321A1, “FORMULATION USING AMINO ACID AND CARBOXYLIC ACID, ORGANIC SALT, AND COMPOSITION COMPRISING SAME AND USE THEREOF” (MIYOSHI OIL & FAT CO., LTD., priority 2021, published 2025)

Experiment: Appearance of formulation (state at 25° C.)
Assay type: physicochemical
Description: Formulations 1 to 427 shown in Tables 1A to 1D were prepared by the above-described method using the components (A) and (B) at the compounding molar ratios shown in the tables, and their states at 25° C. were observed.

[1] = 25° C., components (A) and (B) at the compounding molar ratio shown
[2] = Tables 1C-1 to 1D, compounding molar ratio (Component (A):Component (B)) 1:1

state at 25° C. [2]	SMILES	state at 25° C. [1]
	CC(C)C[C@H](N)C(=O)O.O=C(O)C(O)C(O)C(=O)O (centres unmarked) [Formulation 217]	Solid
	CC(C)C[C@H](N)C(=O)O.O=C(O)c1ccccc1 [Formulation 218]	Solid
	CC(C)C[C@H](N)C(=O)O.O=C1O[C@H]([C@@H](O)CO)C(O)=C1O [Formulation 219]	Solid
	CC[C@H](C)[C@H](N)C(=O)O.O=CO [Formulation 221]	Solid
	CC(=O)O.CC[C@H](C)[C@H](N)C(=O)O [Formulation 222]	Solid
	CCC(=O)O.CC[C@H](C)[C@H](N)C(=O)O [Formulation 223]	Solid
	CCCCCC(=O)O.CC[C@H](C)[C@H](N)C(=O)O [Formulation 224]	Solid
	CCCC(=O)O.CC[C@H](C)[C@H](N)C(=O)O [Formulation 225]	Solid
	CC[C@H](C)[C@H](N)C(=O)O.O=C(O)[C@H](O)[C@@H](O)[C@H](O)[C@H](O)CO [Formulation 226]	Solid
	CC(O)C(=O)O.CC[C@H](C)[C@H](N)C(=O)O [Formulation 227]	Solid
	CC[C@H](C)[C@H](N)C(=O)O.O=C(O)CCCCC(=O)O [Formulation 228]	Solid
	CC[C@H](C)[C@H](N)C(=O)O.O=C(O)CCC(=O)O [Formulation 229]	Solid
	CC[C@H](C)[C@H](N)C(=O)O.N[C@@H](CCC(=O)O)C(=O)O [Formulation 230]	Solid
	CC[C@H](C)[C@H](N)C(=O)O.O=C(O)/C=C/C(=O)O [Formulation 231]	Solid
	CC[C@H](C)[C@H](N)C(=O)O.O=C(O)C[C@H](O)C(=O)O [Formulation 232]	Solid
	CC[C@H](C)[C@H](N)C(=O)O.O=C(O)CC(O)(CC(=O)O)C(=O)O [Formulation 233]	Solid
	CC[C@H](C)[C@H](N)C(=O)O.O=C(O)C(O)C(O)C(=O)O (centres unmarked) [Formulation 234]	Solid
	CC[C@H](C)[C@H](N)C(=O)O.O=C(O)c1ccccc1 [Formulation 235]	Solid
	CC[C@H](C)[C@H](N)C(=O)O.O=C1O[C@H]([C@@H](O)CO)C(O)=C1O [Formulation 236]	Solid
	N[C@@H](CO)C(=O)O.O=CO [Formulation 238]	Solid
	CC(=O)O.N[C@@H](CO)C(=O)O [Formulation 239]	Solid

state at 25° C. [2]	SMILES	state at 25° C. [1]
	CCC(=O)O.N[C@@H](CO)C(=O)O [Formulation 240]	Solid
	CCCCCC(=O)O.N[C@@H](CO)C(=O)O [Formulation 241]	Solid
	CCCC(=O)O.N[C@@H](CO)C(=O)O [Formulation 242]	Solid
	CC(O)C(=O)O.N[C@@H](CO)C(=O)O [Formulation 244]	Solid
	N[C@@H](CO)C(=O)O.O=C(O)CCCCC(=O)O [Formulation 245]	Solid
	N[C@@H](CO)C(=O)O.O=C(O)CCC(=O)O [Formulation 246]	Solid
	N[C@@H](CCC(=O)O)C(=O)O.N[C@@H](CO)C(=O)O [Formulation 247]	Solid
	N[C@@H](CO)C(=O)O.O=C(O)/C=C/C(=O)O [Formulation 248]	Solid
	N[C@@H](CO)C(=O)O.O=C(O)C(O)C(O)C(=O)O (centres unmarked) [Formulation 251]	Solid
	N[C@@H](CO)C(=O)O.O=C(O)c1ccccc1 [Formulation 252]	Solid
	N[C@@H](CO)C(=O)O.O=C1O[C@H]([C@@H](O)CO)C(O)=C1O [Formulation 253]	Solid
	N[C@@H](CO)C(=O)O.O=C1O[C@H]([C@H](O)CO)C(O)=C1O [Formulation 254]	Solid
	C[C@@H](O)[C@H](N)C(=O)O.O=CO [Formulation 255]	Solid
	CC(=O)O.C[C@@H](O)[C@H](N)C(=O)O [Formulation 256]	Solid
	CCC(=O)O.C[C@@H](O)[C@H](N)C(=O)O [Formulation 257]	Solid
	CCCCCC(=O)O.C[C@@H](O)[C@H](N)C(=O)O [Formulation 258]	Solid
	CCCC(=O)O.C[C@@H](O)[C@H](N)C(=O)O [Formulation 259]	Solid
	C[C@@H](O)[C@H](N)C(=O)O.O=C(O)[C@H](O)[C@@H](O)[C@H](O)[C@H](O)CO [Formulation 260]	Solid
	CC(O)C(=O)O.C[C@@H](O)[C@H](N)C(=O)O [Formulation 261]	Solid
	C[C@@H](O)[C@H](N)C(=O)O.O=C(O)CCCCC(=O)O [Formulation 262]	Solid
	C[C@@H](O)[C@H](N)C(=O)O.O=C(O)CCC(=O)O [Formulation 263]	Solid

state at 25° C. [2]	SMILES	state at 25° C. [1]
	C[C@@H](O)[C@H](N)C(=O)O.N[C@@H](CCC(=O)O)C(=O)O [Formulation 264]	Solid
	C[C@@H](O)[C@H](N)C(=O)O.O=C(O)/C=C/C(=O)O [Formulation 265]	Solid
	C[C@@H](O)[C@H](N)C(=O)O.O=C(O)C[C@H](O)C(=O)O [Formulation 266]	Solid
	C[C@@H](O)[C@H](N)C(=O)O.O=C(O)CC(O)(CC(=O)O)C(=O)O [Formulation 267]	Solid
	C[C@@H](O)[C@H](N)C(=O)O.O=C(O)C(O)C(O)C(=O)O (centres unmarked) [Formulation 268]	Solid
	C[C@@H](O)[C@H](N)C(=O)O.O=C(O)c1ccccc1 [Formulation 269]	Solid
	C[C@@H](O)[C@H](N)C(=O)O.O=C1O[C@H]([C@@H](O)CO)C(O)=C1O [Formulation 270]	Solid
	C[C@@H](O)[C@H](N)C(=O)O.O=C1O[C@H]([C@H](O)CO)C(O)=C1O [Formulation 271]	Solid
Solid	N[C@@H](CS)C(=O)O.O=CO [Formulation 306]	
Solid	CC(=O)O.N[C@@H](CS)C(=O)O [Formulation 307]	
Solid	CCC(=O)O.N[C@@H](CS)C(=O)O [Formulation 308]	
Solid	CCCCCC(=O)O.N[C@@H](CS)C(=O)O [Formulation 309]	
Solid	CCCC(=O)O.N[C@@H](CS)C(=O)O [Formulation 310]	
Solid	N[C@@H](CS)C(=O)O.O=C(O)[C@H](O)[C@@H](O)[C@H](O)[C@H](O)CO [Formulation 311]	
Solid	CC(O)C(=O)O.N[C@@H](CS)C(=O)O [Formulation 312]	
Solid	N[C@@H](CS)C(=O)O.O=C(O)CCCCC(=O)O [Formulation 313]	
Solid	N[C@@H](CS)C(=O)O.O=C(O)CCC(=O)O [Formulation 314]	
Solid	N[C@@H](CS)C(=O)O.O=C(O)/C=C/C(=O)O [Formulation 316]	
Solid	N[C@@H](CS)C(=O)O.O=C(O)C[C@H](O)C(=O)O [Formulation 317]	

SMILES	state at 25° C. [2]	state at 25° C. [1]
N[C@@H](CCC(=O)O)C(=O)O.N[C@@H](CS)C(=O)O [Formulation 315]	Solid	
